Test results as given in patent US4224442A, “7-Ureido acetamido substituted cephalosporin antibiotics” (Eli Lilly and Company, priority 1975, dated 1980).
≈ marks a conversion by molar mass, not a printed value.

Assays:
X400 = assay: Gradient Plate in vitro method, MIC; format: cell-based; conditions: X400, methicillin resistant Staphylococcus, read-out: Minimum Inhibitory Concentration
Description: (§1) The antibiotic activity of the cephalosporin compounds of the formula I is illustrated by the data presented in Table I for representative compounds. The values in the table are the minimum inhibitory concentrations (MIC) for the test compounds against the indicated microorganisms. The MIC values were obtained in the Gradient Plate in vitro method for determining antibiotic activity.
(§2) Minimum Inhibitory Concentration (mcg./ml.)
(§3) ^1 Test organisms V41, V32 and V84 are penicillin resistant
(§4) Staphyloccus, X400 is a methicillin resistant Staphylococcus.

Klebsiella pneumoniae = assay: Gradient Plate in vitro method, MIC; format: cell-based; conditions: read-out: Minimum Inhibitory Concentration
Description: as §1, §2

Pseudomonas aeruginosa = assay: Gradient Plate in vitro method, MIC; format: cell-based; conditions: read-out: Minimum Inhibitory Concentration
Description: as §1, §2

Aerobacter aerogenes = assay: Gradient Plate in vitro method, MIC; format: cell-based; conditions: Klebsiella aerogenes, read-out: Minimum Inhibitory Concentration
Description: as §1, §2

Salmonella heidelberg = assay: Gradient Plate in vitro method, MIC; format: cell-based; conditions: Salmonella enterica, read-out: Minimum Inhibitory Concentration
Description: as §1, §2

Shigella sp. = assay: Gradient Plate in vitro method, MIC; format: cell-based; conditions: read-out: Minimum Inhibitory Concentration
Description: as §1, §2

Staphylococcus aureus = assay: standard gear agar dilution method, MIC; format: cell-based
Description: In the standard gear agar dilution method, the MIC values for the above test compounds A through E against Staphylococcus aureus were as follows: A, 2; B, 1; C, 0.5; D, 2; and E, 0.5 mcg./m1.

V32 = assay: Gradient Plate in vitro method, MIC; format: cell-based, penicillin resistant Staphyloccus; conditions: V32, penicillin resistant Staphylococcus, read-out: Minimum Inhibitory Concentration
Description: as §1, §2, §3, §4

V84 = assay: Gradient Plate in vitro method, MIC; format: cell-based, penicillin resistant Staphyloccus; conditions: V84, penicillin resistant Staphylococcus, read-out: Minimum Inhibitory Concentration
Description: as §1, §2, §3, §4

V41 = assay: Gradient Plate in vitro method, MIC; format: cell-based, penicillin resistant Staphyloccus; conditions: V41, penicillin resistant Staphylococcus, read-out: Minimum Inhibitory Concentration
Description: as §1, §2, §3, §4

Serratia marcescens = assay: Gradient Plate in vitro method, MIC; format: cell-based; conditions: read-out: Minimum Inhibitory Concentration
Description: (§5) The values in the table are the minimum inhibitory concentrations (MIC) for the test compounds against the indicated microorganisms. The MIC values were obtained in the Gradient Plate in vitro method for determining antibiotic activity.

Escherichia coli [1] = assay: Gradient Plate in vitro method, MIC; format: cell-based; conditions: read-out: Minimum Inhibitory Concentration
Description: as §5

Escherichia coli [2] = assay: in vivo effective dose in experimental infections in mice; conditions: ip, E. coli infection in mice
Description: (§6) The in vivo effective dose […] in mg./kg. for representative antibiotics of the formula I has been determined in experimental infections in mice. Table II lists the ED50 dose vs. Streptococcus pyogenes and Escherichia coli infections. In the table, the antibiotics are identified with the R", R', and R1 -R3 terms of Formula I. |Test Compound ED50 (mg/kg × 2) i.p.

Streptococcus pyogenes = assay: as above; conditions: ip, S. pyogenes infection in mice
Description: as §6

[3] = Electrometric titration in 66 percent DMF; format: physicochemical; conditions: 66% dmf

| SMILES | MIC (X400) [µg/mL] | MIC (Klebsiella pneumoniae) [µg/mL] | MIC (Pseudomonas aeruginosa) [µg/mL] | MIC (Aerobacter aerogenes) [µg/mL] | MIC (Salmonella heidelberg) [µg/mL] | MIC (Shigella sp.) [µg/mL] | MIC (Staphylococcus aureus) [µg/mL] | MIC (V32) [µg/mL] | MIC (V84) [µg/mL] | MIC (V41) [µg/mL] | MIC (Serratia marcescens) [µg/mL] | MIC (Escherichia coli [1]) [µg/mL] | ED50 (Escherichia coli [2]) [mg/kg] | ED50 (Streptococcus pyogenes) [mg/kg] | pKa ([3]; first of two titratable groups) | pKa ([3]; second of two titratable groups) |
| --- | --- | --- | --- | --- | --- | --- | --- | --- | --- | --- | --- | --- | --- | --- | --- | --- |
| Cn1nnnc1SCC1=C(C(=O)O)N2C(=O)C(NC(=O)C(NC(=O)N3CCNC3=O)c3ccccc3)[C@H]2SC1 (stereo partly drawn) [Test Compound D, 7-[α-(imidazolidine-2-one-1-ylcarbonylamino)-α-phenylacetamido]-3-(1-methyl-1H-tetrazole-5-ylthiomethyl)-3-cephem-4-carboxylic acid] | > 20 | 7 (≈ 12.2 µM) | 90 (≈ 157 µM) | 12 (≈ 20.9 µM) | 6 (≈ 10.5 µM) | 7 (≈ 12.2 µM) | 2 (≈ 3.49 µM) | 7 (≈ 12.2 µM) | 0.9 (≈ 1.57 µM) | 6 (≈ 10.5 µM) | 70 (≈ 122 µM) | 12 (≈ 20.9 µM) |  |  |  |  |
| CNC(=O)NC(=O)NC(C(=O)NC1C(=O)N2C(C(=O)O)=C(CSc3nnc(C)s3)CSC12)c1ccc(O)cc1 (stereo not drawn) [Example 14, 7-[α-(3-methylcarbamoyl-1-ureido)-α-(4-hydroxyphenyl)acetamido]-3-(5-methyl-1,3,4-thiadiazole-2-ylthiomethyl)-3-cephem-4-carboxylic acid] |  |  |  |  |  |  |  |  |  |  |  |  | < 72 | 0.7 |  |  |
| Cn1nnnc1SCC1=C(C(=O)O)N2C(=O)C(NC(=O)C(NC(=O)NC(N)=O)c3ccccc3)C2SC1 (stereo not shown) [Test Compound H] | > 20 | 35 (≈ 63.9 µM) | 60 (≈ 110 µM) | 15 (≈ 27.4 µM) | 12 (≈ 21.9 µM) | 9.5 (≈ 17.3 µM) |  | 4 (≈ 7.3 µM) | 1 (≈ 1.83 µM) | 2.5 (≈ 4.57 µM) | > 200 | 16 (≈ 29.2 µM) | < 72 | 0.7 |  |  |
| CNC(=O)NC(=O)NC(C(=O)NC1C(=O)N2C(C(=O)O)=C(CSc3nnnn3C)CSC12)c1cccs1 (stereo not drawn) [Test Compound I, 7-[α-(3-methylcarbamoyl-1-ureido)-α-(2-thienyl)-acetamido]-3-(1-methyl-1H-tetrazole-5-ylthiomethyl)-3-cephem-4-carboxylic acid] | 13 (≈ 22.9 µM) | 6.8 (≈ 12 µM) | 16 (≈ 28.2 µM) | 4.3 (≈ 7.58 µM) | 4.5 (≈ 7.93 µM) | 3 (≈ 5.29 µM) |  | 0.7 (≈ 1.23 µM) | 0.6 (≈ 1.06 µM) | 0.6 (≈ 1.06 µM) | 35 (≈ 61.7 µM) | 5.5 (≈ 9.69 µM) | < 72 | < 7.2 |  |  |
| CNC(=O)N(C)C(=O)NC(C(=O)NC1C(=O)N2C(C(=O)O)=C(CSc3nnc(C)s3)CSC12)c1ccc(O)cc1 (stereo not drawn) [Test Compound B, 7-[α-(3-methylcarbamoyl-3-methyl-1-ureido)-α-(4-hydroxyphenyl)acetamido]-3-(5-methyl-1,3,4-thiadiazole-2-ylthiomethyl)-3-cephem-4-carboxylic acid] | > 20 | 4 (≈ 6.58 µM) | 28 (≈ 46.1 µM) | 4 (≈ 6.58 µM) | 2 (≈ 3.29 µM) | 3 (≈ 4.94 µM) | 1 (≈ 1.65 µM) | 10 (≈ 16.5 µM) | 0.6 (≈ 0.987 µM) | 8 (≈ 13.2 µM) | 19 (≈ 31.3 µM) | 4 (≈ 6.58 µM) |  |  | 4.8 | 12.2 |
| CNC(=O)N(C)C(=O)NC(C(=O)NC1C(=O)N2C(C(=O)O)=C(COC(C)=O)CSC12)c1ccccc1 (stereo not drawn) [Test Compound C, 7-[α-(3-methylcarbamoyl-3-methyl-1-ureido)-α-phenylacetamido]-3-acetoxymethyl-3-cephem-4-carboxylic acid] | > 20 | 14 (≈ 26.9 µM) | 80 (≈ 154 µM) | 14 (≈ 26.9 µM) | 13 (≈ 25 µM) | 7 (≈ 13.5 µM) | 0.5 (≈ 0.962 µM) | 1 (≈ 1.92 µM) | 0.5 (≈ 0.962 µM) | 1 (≈ 1.92 µM) | 80 (≈ 154 µM) | 11 (≈ 21.2 µM) | < 7.2 | < 7.2 |  |  |
| CNC(=O)NC(=O)NC(C(=O)NC1C(=O)N2C(C(=O)O)=C(CSc3nnc(C)s3)CSC12)c1ccc(O)cc1 (stereo not drawn) [Test Compound L, Sodium 7-[α-(3-methylcarbamoyl-1-ureido)-α-(4-hydroxyphenyl)acetamido]-3-(5-methyl-1,3,4-thiadiazole-2-ylthiomethyl)3-cephem-4-carboxylate] | > 20 | 16 | 19.5 | 15.5 | 6.5 | 5.5 |  | 7.5 | 0.6 | 6.5 | > 200 | 7.5 |  |  |  |  |
| CNC(=O)N(C)C(=O)NC(C(=O)NC1C(=O)N2C(C(=O)O)=C(CSc3nnnn3C)CSC12)c1ccc(O)cc1 (stereo not drawn) [Test Compound A, 7-[α-(3-methylcarbamoyl-3-methyl-1-ureido)-α-(4-hydroxyphenyl)acetamido]-3-(1-methyl-1H-tetrazole-5-ylthiomethyl)-3-cephem-4-carboxylic acid] | > 20 | 3.5 (≈ 5.92 µM) | 18 (≈ 30.4 µM) | 1 (≈ 1.69 µM) | 1 (≈ 1.69 µM) | 1 (≈ 1.69 µM) | 2 (≈ 3.38 µM) | 4.8 (≈ 8.11 µM) | 0.6 (≈ 1.01 µM) | 4 (≈ 6.76 µM) | 8 (≈ 13.5 µM) | 1 (≈ 1.69 µM) | 72 | 0.7 |  |  |
| CNC(=O)NC(=O)NC(C(=O)NC1C(=O)N2C(C(=O)O)=C(CSc3nnnn3C)CSC12)c1ccccc1 (stereo not drawn) [Test Compound J, 7-[α-(3-methylcarbamoyl-1-ureido)-α-phenylacetamido)-3-(1-methyl-1H-tetrazole-5-ylthiomethyl)-3-cephem-4-carboxylic acid] | > 20 | 10 (≈ 17.8 µM) | 22.3 (≈ 39.7 µM) | 4.3 (≈ 7.66 µM) | 4.3 (≈ 7.66 µM) | 4 (≈ 7.12 µM) |  | 3 (≈ 5.34 µM) | 5 (≈ 8.9 µM) | 2 (≈ 3.56 µM) | 130 (≈ 231 µM) | 7.5 (≈ 13.4 µM) | 72 | 0.7 |  |  |
| CNC(=O)N(C)C(=O)NC(C(=O)NC1C(=O)N2C(C(=O)O)=C(CSc3nnnn3C)CSC12)c1cccs1 (stereo not drawn) [Test Compound K, 7-[α-(3-methylcarbamoyl-3-methyl-1-ureido)-α-(2-thienyl)acetamido]-3-(1-methyl-1H-tetrazole-5-ylthiomethyl)-3-cephem-4-carboxylic acid] | > 20 | 0.9 (≈ 1.55 µM) | 21.5 (≈ 37 µM) | 1 (≈ 1.72 µM) | 10 (≈ 17.2 µM) | 1 (≈ 1.72 µM) |  | 3 (≈ 5.16 µM) | 3 (≈ 5.16 µM) | 3 (≈ 5.16 µM) | 19.5 (≈ 33.5 µM) | 2.5 (≈ 4.3 µM) |  |  |  |  |
| Cn1nnnc1SCC1=C(C(=O)O)N2C(=O)C(NC(=O)C(NC(=O)NC(=O)Nc3ccccc3)c3ccccc3)C2SC1 (stereo not drawn) [Test Compound M, 7-[α-(3-phenylcarbamoyl-1-ureido)-α-phenylacetamido]-3-(1-methyl-1H-tetrazole-5-ylthiomethyl)-3-cephem-4-carboxylic acid] | 10 (≈ 16 µM) | 0.6 (≈ 0.962 µM) | 19.5 (≈ 31.3 µM) | 15.5 (≈ 24.9 µM) | 7.8 (≈ 12.5 µM) | 4 (≈ 6.41 µM) |  | 0.5 (≈ 0.802 µM) | 0.5 (≈ 0.802 µM) | 0.6 (≈ 0.962 µM) | 24 (≈ 38.5 µM) | 10 (≈ 16 µM) |  |  |  |  |
| CC(=O)OCC1=C(C(=O)O)N2C(=O)C(NC(=O)C(NC(=O)N3CCNC3=O)c3ccccc3)[C@H]2SC1 (stereo partly drawn) [Test Compound E, 7-[α-(imidazolidine-2-one-1-ylcarbonylamino)-α-phenylacetamido]-3-acetoxymethyl-3-cephem-4-carboxylic acid] | > 20 | 12 (≈ 23.2 µM) | 24 (≈ 46.4 µM) | 10 (≈ 19.3 µM) | 11 (≈ 21.3 µM) | 10 (≈ 19.3 µM) | 0.5 (≈ 0.966 µM) | 5 (≈ 9.66 µM) | 0.4 (≈ 0.773 µM) | 2 (≈ 3.86 µM) | 42 (≈ 81.2 µM) | 18 (≈ 34.8 µM) |  |  |  |  |
| CNC(=O)N(C)C(=O)NC(C(=O)NC1C(=O)N2C(C(=O)O)=C(CSc3nnnn3C)CSC12)c1ccccc1 (stereo not drawn) [Test Compound F, 7-[α-(3-methylcarbamoyl-3-methyl-1-ureido)-α-phenylacetamido]-3-(1-methyl-1H-tetrazole-5-ylthiomethyl)-3-cephem-4-carboxylic acid] | > 20 | 1 (≈ 1.74 µM) | 22 (≈ 38.2 µM) | 3 (≈ 5.21 µM) | 3 (≈ 5.21 µM) | 3 (≈ 5.21 µM) |  | 5 (≈ 8.69 µM) | 4 (≈ 6.95 µM) | 5 (≈ 8.69 µM) | 22 (≈ 38.2 µM) | 4 (≈ 6.95 µM) |  |  |  |  |
